Reference: US6737383B1, “Herbicidal oxadiazolidines” (priority 1999, dated 2004)

Experiments:
[1] = system: soybean; assay: Test B pre/postemergence soybean; format: in vivo, Glycine max
In short: (§1)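 Response is a visual 0-to-10 score relative to untreated plants, where 0 means no effect and 10 means complete control, taken twelve to sixteen days after application. Treatments went onto soil at planting and onto foliage of 1- to 4-leaf plants, using a surfactant-containing non-phytotoxic solvent.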

[2] = system: cocklebur; assay: Test B pre/postemergence cocklebur; format: in vivo, Xanthium strumarium
In short: as §1

[3] = system: sugar beet; assay: Test B pre/postemergence sugar beet; format: in vivo, Beta vulgaris
In short: as §1

[4] = system: crabgrass; assay: Test B pre/postemergence crabgrass; format: in vivo, Digitaria sanguinalis
In short: as §1

[5] = system: wild oat; assay: Test B pre/postemergence wild oat; format: in vivo, Avena fatua
In short: as §1

[6] = system: giant foxtail; assay: Test B pre/postemergence giant foxtail; format: in vivo, Setaria faberii
In short: as §1

[7] = system: bedstraw; assay: Test B pre/postemergence bedstraw; format: in vivo, Galium aparine
In short: as §1

[8] = system: purple nutsedge; assay: Test B pre/postemergence purple nutsedge; format: in vivo, Cyperus rotundus
In short: as §1

[9] = system: corn; assay: Test B pre/postemergence corn; format: in vivo, Zea mays
In short: as §1

[10] = system: wheat; assay: Test B pre/postemergence wheat; format: in vivo, Triticum aestivum
In short: as §1

[11] = system: velvetleaf; assay: Test B pre/postemergence velvetleaf; format: in vivo, Abutilon theophrasti
In short: as §1

[12] = system: surinam grass; assay: Test B pre/postemergence surinam grass; format: in vivo, Brachiaria decumbens
In short: as §1

[13] = system: morningglory; assay: Test B pre/postemergence morningglory; format: in vivo, Ipomoea hederacea
In short: as §1

[14] = system: rape; assay: Test B pre/postemergence rape; format: in vivo, Brassica napus
In short: as §1

[15] = system: pigweed; assay: Test B pre/postemergence pigweed; format: in vivo, Amaranthus retroflexus
In short: as §1

[16] = system: blackgrass; assay: Test B pre/postemergence blackgrass; format: in vivo, Alopecurus myosuroides
In short: as §1

[17] = Postemergence, Rate 62 g/ha, scale 0 to 10, 0 is no effect, 10 is complete control
[18] = Postemergence, Rate 125 g/ha, scale of 0 to 10 where 0 is no effect and 10 is complete control
[19] = Preemergence, Rate 62 g/ha, scale of 0 to 10 where 0 is no effect and 10 is complete control
[20] = Preemergence, Rate 125 g/ha, scale of 0 to 10 where 0 is no effect and 10 is complete control
[21] = Preemergence, Rate 250 g/ha, scale 0 to 10 (0 no effect, 10 complete control)
[22] = Preemergence, Rate 500 g/ha, scale of 0 to 10 where 0 is no effect and 10 is complete control
[23] = Rate 500 g/ha, Postemergence, scale 0 to 10, 0 is no effect, 10 is complete control
[24] = Postemergence, Rate 250 g/ha, scale of 0 to 10, 0 is no effect, 10 is complete control

SMILES: CC(C)N(C(=O)n1oc(=O)n(C(CCl)CCl)c1=O)c1ccc(F)cc1 [Compound 672]
- Plant response rating, Soybean [1, 17]: 2
- Soybean plant response rating [1, 18]: 2
- Soybean plant response rating [1, 19]: 0
- Plant response rating, Soybean [1, 20]: 0
- Plant response rating, Soybean [1, 21]: 0
- Plant response rating, Soybean [1, 22]: 0
- Soybean plant response rating [1, 23]: 5
- Plant response rating, Cocklebur [2, 17]: 0
- Cocklebur plant response rating [2, 18]: 1
- Cocklebur plant response rating [2, 24]: 2
- Cocklebur plant response rating [2, 19]: 0
- Plant response rating, Cocklebur [2, 20]: 0
- Plant response rating, Cocklebur [2, 21]: 0
- Cocklebur plant response rating [2, 23]: 7
- Plant response rating, Sugarbeets [3, 17]: 0
- Sugarbeets plant response rating [3, 18]: 0
- Sugarbeets plant response rating [3, 19]: 3
- Plant response rating, Sugarbeets [3, 20]: 4
- Plant response rating, Sugarbeets [3, 21]: 7
- Plant response rating, Sugarbeets [3, 22]: 8
- Sugarbeets plant response rating [3, 23]: 3
- Plant response rating, Crabgrass [4, 17]: 5
- Crabgrass plant response rating [4, 18]: 6
- Crabgrass plant response rating [4, 24]: 7
- Crabgrass plant response rating [4, 19]: 8
- Plant response rating, Crabgrass [4, 20]: 10
- Plant response rating, Crabgrass [4, 21]: 10
- Plant response rating, Crabgrass [4, 22]: 10
- Crabgrass plant response rating [4, 23]: 9
- Plant response rating, Wild oats [5, 17]: 0
- Wild oats plant response rating [5, 18]: 0
- Wild oats plant response rating [5, 19]: 0
- Plant response rating, Wild oats [5, 20]: 4
- Plant response rating, Wild oats [5, 21]: 5
- Plant response rating, Wild oats [5, 22]: 7
- Wild oats plant response rating [5, 23]: 0
- Plant response rating, Giant foxtail [6, 17]: 3
- Giant foxtail plant response rating [6, 18]: 5
- Giant foxtail plant response rating [6, 24]: 8
- Giant foxtail plant response rating [6, 19]: 9
- Plant response rating, Giant foxtail [6, 20]: 10
- Plant response rating, Giant foxtail [6, 21]: 10
- Plant response rating, Giant foxtail [6, 22]: 10
- Giant foxtail plant response rating [6, 23]: 9
- Bedstraw plant response rating [7, 24]: 4
- Bedstraw plant response rating [7, 19]: 0
- Plant response rating, Bedstraw [7, 20]: 0
- Plant response rating, Bedstraw [7, 21]: 0
- Plant response rating, Bedstraw [7, 22]: 0
- Bedstraw plant response rating [7, 23]: 6
- Plant response rating, Nutsedge [8, 17]: 0
- Nutsedge plant response rating [8, 18]: 0
- Nutsedge plant response rating [8, 19]: 0
- Plant response rating, Nutsedge [8, 20]: 0
- Plant response rating, Nutsedge [8, 21]: 0
- Plant response rating, Nutsedge [8, 22]: 0
- Nutsedge plant response rating [8, 23]: 5
- Plant response rating, Corn [9, 17]: 0
- Corn plant response rating [9, 18]: 0
- Corn plant response rating [9, 24]: 0
- Corn plant response rating [9, 19]: 0
- Plant response rating, Corn [9, 20]: 0
- Plant response rating, Corn [9, 21]: 0
- Plant response rating, Corn [9, 22]: 0
- Corn plant response rating [9, 23]: 0
- Plant response rating, Wheat [10, 17]: 0
- Wheat plant response rating [10, 18]: 0
- Wheat plant response rating [10, 19]: 0
- Plant response rating, Wheat [10, 20]: 0
- Plant response rating, Wheat [10, 21]: 0
- Plant response rating, Wheat [10, 22]: 0
- Wheat plant response rating [10, 23]: 0
- Plant response rating, Velvetleaf [11, 17]: 6
- Velvetleaf plant response rating [11, 18]: 6
- Velvetleaf plant response rating [11, 19]: 0
- Plant response rating, Velvetleaf [11, 20]: 3
- Plant response rating, Velvetleaf [11, 21]: 3
- Plant response rating, Velvetleaf [11, 22]: 4
- Velvetleaf plant response rating [11, 23]: 7
- Plant response rating, B. signalgrass [12, 17]: 0
- Plant response rating, B. signalgrass [12, 18]: 3
- B. signalgrass plant response rating [12, 24]: 3
- B. signalgrass plant response rating [12, 19]: 2
- Plant response rating, B. signalgrass [12, 20]: 4
- Plant response rating, B. signalgrass [12, 21]: 6
- Plant response rating, B. signalgrass [12, 22]: 8
- B. signalgrass plant response rating [12, 23]: 4
- Plant response rating, Morningglory [13, 17]: 4
- Morningglory plant response rating [13, 18]: 8
- Morningglory plant response rating [13, 24]: 8
- Morningglory plant response rating [13, 19]: 0
- Plant response rating, Morningglory [13, 20]: 0
- Plant response rating, Morningglory [13, 21]: 0
- Plant response rating, Morningglory [13, 22]: 2
- Plant response rating, Rape [14, 17]: 0
- Rape plant response rating [14, 18]: 3
- Rape plant response rating [14, 19]: 0
- Plant response rating, Rape [14, 20]: 2
- Plant response rating, Rape [14, 21]: 7
- Plant response rating, Rape [14, 22]: 8
- Rape plant response rating [14, 23]: 3
- Plant response rating, Redroot pigweed [15, 17]: 7
- Redroot pigweed plant response rating [15, 19]: 0
- Plant response rating, Redroot pigweed [15, 20]: 3
- Plant response rating, Redroot pigweed [15, 21]: 7
- Plant response rating, Redroot pigweed [15, 22]: 8
- Redroot pigweed plant response rating [15, 23]: 8
- Plant response rating, Blackgrass [16, 17]: 0
- Blackgrass plant response rating [16, 18]: 2
- Blackgrass plant response rating [16, 24]: 6
- Blackgrass plant response rating [16, 19]: 1
- Plant response rating, Blackgrass [16, 20]: 3
- Plant response rating, Blackgrass [16, 21]: 8
- Plant response rating, Blackgrass [16, 22]: 8
- Blackgrass plant response rating [16, 23]: 6
